{"source": "ChEMBL document CHEMBL5331066", "about": "“Structure-guided design of novel HEPT analogs with enhanced potency and safety: From Isopropyl-HEPTs to Cyclopropyl-HEPTs” (Eur J Med Chem, 2023)", "key": {"[1]": {"test_system": "Human immunodeficiency virus 1", "assay": "Antiviral activity against HIV1 harboring L100I mutant infected in human MT4 cells assessed as protection against virus-induced cytopathicity", "format": "functional, organism-based", "conditions": "Human immunodeficiency virus 1, MT4"}, "[2]": {"test_system": "Human immunodeficiency virus 1", "assay": "Antiviral activity against wild type HIV1 IIIB infected in human MT4 cells assessed as protection against virus-induced cytopathicity", "format": "functional, organism-based", "conditions": "Human immunodeficiency virus 1, IIIB"}, "[3]": {"assay": "Cytotoxicity against human MT4 cells assessed as reduction in cell viability", "format": "toxicity, cell-based"}, "[4]": {"assay": "Selectivity index, ratio of CC50 for cytotoxicity against human MT4 cells to EC50 for antiviral activity against wild type HIV1 IIIB infected in human MT4 cells", "format": "toxicity, cell-based", "conditions": "read-out: Ratio CC50/EC50"}, "[5]": {"test_system": "Human immunodeficiency virus 1", "assay": "Antiviral activity against HIV1 harboring K103 N mutant infected in human MT4 cells assessed as protection against virus-induced cytopathicity", "format": "functional, organism-based", "conditions": "Human immunodeficiency virus 1, MT4"}, "[6]": {"test_system": "Human immunodeficiency virus 1", "assay": "Antiviral activity against HIV1 harboring Y181C mutant infected in human MT4 cells assessed as protection against virus-induced cytopathicity", "format": "functional, organism-based", "conditions": "Human immunodeficiency virus 1, MT4"}, "[7]": {"test_system": "Human immunodeficiency virus 1", "assay": "Antiviral activity against HIV1 harboring Y188L mutant infected in human MT4 cells assessed as protection against virus-induced cytopathicity", "format": "functional, organism-based", "conditions": "Human immunodeficiency virus 1, MT4"}, "[8]": {"test_system": "Human immunodeficiency virus 1", "assay": "Antiviral activity against HIV1 harboring E138K mutant infected in human MT4 cells assessed as protection against virus-induced cytopathicity", "format": "functional, organism-based", "conditions": "Human immunodeficiency virus 1, MT4"}, "[9]": {"molecular_target": "Human immunodeficiency virus type 1 reverse transcriptase (Human immunodeficiency virus 1, UniProt Q72547)", "assay": "Inhibition of wild type HIV-1 reverse transcriptase assessed as inhibition of biotin deoxyuridine triphosphate incorporation into […]"}, "Cytochrome P450 1A2": {"molecular_target": "T1, Cytochrome P450 1A2 (Homo sapiens, UniProt P05177)", "T1 sequence (P05177 whole entry)": "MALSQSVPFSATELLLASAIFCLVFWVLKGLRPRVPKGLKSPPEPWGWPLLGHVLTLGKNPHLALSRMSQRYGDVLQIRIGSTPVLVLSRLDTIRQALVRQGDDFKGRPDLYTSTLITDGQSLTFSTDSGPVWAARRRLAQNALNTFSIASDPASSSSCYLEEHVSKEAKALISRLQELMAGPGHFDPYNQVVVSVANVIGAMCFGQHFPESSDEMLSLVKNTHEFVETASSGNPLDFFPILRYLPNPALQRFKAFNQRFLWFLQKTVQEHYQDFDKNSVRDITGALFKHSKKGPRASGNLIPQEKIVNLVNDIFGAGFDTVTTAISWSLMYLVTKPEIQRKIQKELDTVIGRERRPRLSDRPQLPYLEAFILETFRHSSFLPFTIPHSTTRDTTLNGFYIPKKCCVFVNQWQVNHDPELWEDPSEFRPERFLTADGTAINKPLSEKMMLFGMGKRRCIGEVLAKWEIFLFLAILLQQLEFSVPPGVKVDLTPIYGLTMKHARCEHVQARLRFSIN", "assay": "Inhibition of CYP1A2 (unknown origin)", "format": "ADME"}, "Cytochrome P450 2C9": {"molecular_target": "Cytochrome P450 2C9 (Homo sapiens, UniProt P11712)", "sequence (P11712 whole entry)": "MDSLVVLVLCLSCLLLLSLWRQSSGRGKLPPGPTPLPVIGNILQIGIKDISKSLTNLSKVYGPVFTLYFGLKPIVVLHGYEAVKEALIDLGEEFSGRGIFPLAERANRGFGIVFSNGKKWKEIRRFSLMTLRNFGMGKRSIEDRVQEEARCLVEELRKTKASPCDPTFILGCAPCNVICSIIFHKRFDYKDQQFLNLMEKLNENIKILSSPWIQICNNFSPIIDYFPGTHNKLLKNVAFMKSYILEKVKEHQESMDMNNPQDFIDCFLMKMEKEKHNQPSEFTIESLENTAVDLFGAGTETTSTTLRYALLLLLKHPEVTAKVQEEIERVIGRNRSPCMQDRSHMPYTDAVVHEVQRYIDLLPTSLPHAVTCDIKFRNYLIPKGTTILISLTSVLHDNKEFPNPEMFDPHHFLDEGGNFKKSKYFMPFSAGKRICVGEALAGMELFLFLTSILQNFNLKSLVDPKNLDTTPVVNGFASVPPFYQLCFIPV", "assay": "Inhibition of CYP2C9 (unknown origin)", "format": "ADME"}, "Cytochrome P450 2C19": {"molecular_target": "Cytochrome P450 2C19 (Homo sapiens, UniProt P33261)", "sequence (P33261 whole entry)": "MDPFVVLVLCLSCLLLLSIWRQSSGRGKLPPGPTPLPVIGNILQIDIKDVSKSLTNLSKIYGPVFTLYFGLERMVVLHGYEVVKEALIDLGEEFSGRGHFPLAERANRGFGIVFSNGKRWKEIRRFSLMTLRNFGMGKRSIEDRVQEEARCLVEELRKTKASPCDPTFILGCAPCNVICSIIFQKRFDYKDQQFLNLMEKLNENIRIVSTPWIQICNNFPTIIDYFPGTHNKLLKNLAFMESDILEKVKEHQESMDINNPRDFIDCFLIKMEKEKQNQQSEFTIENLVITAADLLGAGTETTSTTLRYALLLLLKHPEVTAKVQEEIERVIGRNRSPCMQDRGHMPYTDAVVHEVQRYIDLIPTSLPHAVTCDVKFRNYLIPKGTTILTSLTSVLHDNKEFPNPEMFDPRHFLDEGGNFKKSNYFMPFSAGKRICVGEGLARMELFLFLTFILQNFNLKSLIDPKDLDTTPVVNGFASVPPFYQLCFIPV", "assay": "Inhibition of CYP2C19 (unknown origin)", "format": "ADME"}, "Cytochrome P450 2D6": {"molecular_target": "Cytochrome P450 2D6 (Homo sapiens, UniProt P10635)", "sequence (P10635 whole entry)": "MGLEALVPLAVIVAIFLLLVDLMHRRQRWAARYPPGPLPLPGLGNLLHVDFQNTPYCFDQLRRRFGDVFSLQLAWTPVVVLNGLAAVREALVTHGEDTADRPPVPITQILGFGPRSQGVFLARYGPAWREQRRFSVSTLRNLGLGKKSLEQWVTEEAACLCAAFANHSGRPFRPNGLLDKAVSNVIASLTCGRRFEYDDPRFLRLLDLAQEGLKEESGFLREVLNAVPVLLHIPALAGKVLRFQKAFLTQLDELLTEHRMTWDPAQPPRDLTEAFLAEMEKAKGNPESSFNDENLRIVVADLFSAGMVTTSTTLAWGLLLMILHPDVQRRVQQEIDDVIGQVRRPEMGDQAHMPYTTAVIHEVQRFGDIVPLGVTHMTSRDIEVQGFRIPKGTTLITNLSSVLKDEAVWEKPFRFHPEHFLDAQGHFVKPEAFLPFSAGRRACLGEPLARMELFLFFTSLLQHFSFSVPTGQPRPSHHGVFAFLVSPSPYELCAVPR", "assay": "Inhibition of CYP2D6 (unknown origin)", "format": "ADME"}, "Cytochrome P450 3A4 [10]": {"molecular_target": "T2, Cytochrome P450 3A4 (Homo sapiens, UniProt P08684)", "T2 sequence (P08684 whole entry)": "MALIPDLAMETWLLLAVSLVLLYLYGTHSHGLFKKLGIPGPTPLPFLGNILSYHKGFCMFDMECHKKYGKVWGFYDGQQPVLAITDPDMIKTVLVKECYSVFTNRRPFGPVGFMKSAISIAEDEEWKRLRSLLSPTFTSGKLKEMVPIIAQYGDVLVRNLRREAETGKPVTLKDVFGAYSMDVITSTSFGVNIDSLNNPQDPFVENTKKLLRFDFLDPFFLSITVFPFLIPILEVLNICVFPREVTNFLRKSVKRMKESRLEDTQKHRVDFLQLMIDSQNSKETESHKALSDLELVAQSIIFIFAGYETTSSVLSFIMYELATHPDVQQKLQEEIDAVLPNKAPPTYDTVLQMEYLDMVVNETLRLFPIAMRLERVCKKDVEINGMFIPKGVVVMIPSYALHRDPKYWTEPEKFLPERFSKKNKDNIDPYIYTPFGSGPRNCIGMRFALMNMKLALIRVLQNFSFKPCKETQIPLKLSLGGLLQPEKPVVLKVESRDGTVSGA", "assay": "Inhibition of CYP3A4T (unknown origin)", "format": "ADME"}, "Cytochrome P450 3A4 [11]": {"molecular_target": "T2, Cytochrome P450 3A4", "assay": "Inhibition of CYP3A4M (unknown origin)", "format": "ADME"}, "[12]": {"assay": "AUC (0-infinity) in Sprague-Dawley rat at 1 mg/kg,iv", "format": "ADME, organism-based", "design": "dose 1 mg/kg, route iv", "conditions": "in vivo"}, "[13]": {"assay": "AUC (0-infinity) in Sprague-Dawley rat at 10 mg/kg,po", "format": "ADME, organism-based", "design": "dose 10 mg/kg, route po", "conditions": "in vivo"}, "[14]": {"assay": "AUC (0-t) in Sprague-Dawley rat at 1 mg/kg,iv", "format": "ADME, organism-based", "design": "dose 1 mg/kg, route iv", "conditions": "in vivo"}, "[15]": {"assay": "AUC (0-t) in Sprague-Dawley rat at 10 mg/kg,po", "format": "ADME, organism-based", "design": "dose 10 mg/kg, route po", "conditions": "in vivo"}, "[16]": {"assay": "Half life in Sprague-Dawley rat at 1 mg/kg,iv", "format": "ADME, organism-based", "conditions": "in vivo"}, "[17]": {"assay": "Half life in Sprague-Dawley rat at 10 mg/kg,po", "format": "ADME, organism-based", "conditions": "in vivo"}, "[18]": {"assay": "Tmax in Sprague-Dawley rat at 1 mg/kg,iv", "format": "ADME, organism-based", "conditions": "in vivo"}, "[19]": {"assay": "Tmax in Sprague-Dawley rat at 10 mg/kg,po", "format": "ADME, organism-based", "conditions": "in vivo"}, "[20]": {"assay": "Apparent volume of distribution in Sprague-Dawley rat at 1 mg/kg,iv", "format": "ADME, organism-based", "conditions": "in vivo, read-out: Vz"}, "[21]": {"assay": "Clearance in Sprague-Dawley rat at 1 mg/kg,iv", "format": "ADME, organism-based", "conditions": "in vivo"}, "[22]": {"assay": "Cmax in Sprague-Dawley rat at 1 mg/kg,iv", "format": "ADME, organism-based", "design": "dose 1 mg/kg, route iv", "conditions": "in vivo"}, "[23]": {"assay": "Cmax in Sprague-Dawley rat at 10 mg/kg,po", "format": "ADME, organism-based", "design": "dose 10 mg/kg, route po", "conditions": "in vivo"}, "[24]": {"assay": "Oral bioavailability in Sprague-Dawley rat at 10 mg/kg", "format": "ADME, organism-based", "conditions": "in vivo"}, "[25]": {"molecular_target": "Voltage-gated inwardly rectifying potassium channel KCNH2 (Homo sapiens, UniProt Q12809)", "sequence (Q12809 whole entry)": "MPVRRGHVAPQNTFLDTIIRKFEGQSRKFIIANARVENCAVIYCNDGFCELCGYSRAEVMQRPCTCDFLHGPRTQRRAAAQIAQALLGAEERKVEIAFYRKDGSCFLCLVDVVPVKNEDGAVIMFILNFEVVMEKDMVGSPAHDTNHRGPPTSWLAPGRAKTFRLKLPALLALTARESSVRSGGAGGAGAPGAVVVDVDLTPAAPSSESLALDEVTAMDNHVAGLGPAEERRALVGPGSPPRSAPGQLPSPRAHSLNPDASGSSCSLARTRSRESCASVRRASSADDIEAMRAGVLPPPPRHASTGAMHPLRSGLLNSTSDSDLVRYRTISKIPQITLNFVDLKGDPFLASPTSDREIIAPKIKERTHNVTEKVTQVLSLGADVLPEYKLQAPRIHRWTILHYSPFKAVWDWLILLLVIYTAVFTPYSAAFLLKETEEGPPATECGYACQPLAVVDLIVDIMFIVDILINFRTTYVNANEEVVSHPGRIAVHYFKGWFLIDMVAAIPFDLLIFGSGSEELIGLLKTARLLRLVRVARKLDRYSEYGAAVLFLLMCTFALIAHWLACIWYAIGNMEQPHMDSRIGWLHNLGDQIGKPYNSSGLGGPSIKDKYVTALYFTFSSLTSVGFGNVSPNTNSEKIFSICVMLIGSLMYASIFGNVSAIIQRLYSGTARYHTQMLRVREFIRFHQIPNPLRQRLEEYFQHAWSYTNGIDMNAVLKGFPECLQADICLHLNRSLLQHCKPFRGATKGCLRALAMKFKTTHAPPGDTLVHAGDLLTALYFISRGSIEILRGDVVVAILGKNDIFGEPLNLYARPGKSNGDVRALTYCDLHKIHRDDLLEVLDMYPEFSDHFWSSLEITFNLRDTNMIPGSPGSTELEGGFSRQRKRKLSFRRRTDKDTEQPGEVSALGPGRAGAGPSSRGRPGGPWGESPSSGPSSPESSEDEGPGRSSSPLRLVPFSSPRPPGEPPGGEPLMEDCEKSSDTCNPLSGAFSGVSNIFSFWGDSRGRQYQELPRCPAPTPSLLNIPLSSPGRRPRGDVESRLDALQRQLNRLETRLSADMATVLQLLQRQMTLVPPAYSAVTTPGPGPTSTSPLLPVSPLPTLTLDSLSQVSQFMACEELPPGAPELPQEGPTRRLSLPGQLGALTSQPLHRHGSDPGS", "assay": "Inhibition of human ERG potassium channel expressed in CHO cells by manual patch clamp method", "format": "toxicity, cell-based"}, "[26]": {"assay": "Acute toxicity in mouse assessed as death at 1000 mg/kg,IG administrated for 2 weeks", "format": "organism-based", "conditions": "in vivo, po, 336 h"}, "[27]": {"assay": "Acute toxicity in mouse assessed as increase in body weight at 1000 mg/kg,IG administrated for 2 weeks", "format": "organism-based", "conditions": "in vivo, po, 336 h"}, "[28]": {"assay": "Acute toxicity in mouse assessed as behavioral abnormalities at 1000 mg/kg,IG administrated for 2 weeks", "format": "organism-based", "conditions": "in vivo, po, 336 h"}, "[29]": {"assay": "Acute toxicity in mouse assessed as pathological changes in heart at 1000 mg/kg,IG administrated for 2 weeks by hematoxylin-eosin staining based analysis", "format": "organism-based", "conditions": "in vivo, po, 336 h"}, "[30]": {"assay": "Acute toxicity in mouse assessed as pathological changes in liver at 1000 mg/kg,IG administrated for 2 weeks by hematoxylin-eosin staining based analysis", "format": "organism-based", "conditions": "in vivo, po, 336 h"}, "[31]": {"assay": "Acute toxicity in mouse assessed as pathological changes in spleen at 1000 mg/kg,IG administrated for 2 weeks by hematoxylin-eosin staining based analysis", "format": "organism-based", "conditions": "in vivo, po, 336 h"}, "[32]": {"assay": "Acute toxicity in mouse assessed as pathological changes in lung at 1000 mg/kg,IG administrated for 2 weeks by hematoxylin-eosin staining based analysis", "format": "organism-based", "conditions": "in vivo, po, 336 h"}, "[33]": {"assay": "Acute toxicity in mouse assessed as pathological changes in kidney at 1000 mg/kg,IG administrated for 2 weeks by hematoxylin-eosin staining based analysis", "format": "organism-based", "conditions": "in vivo, po, 336 h"}, "[34]": {"assay": "Acute toxicity in mouse assessed as pathological changes in brain at 1000 mg/kg,IG administrated for 2 weeks by hematoxylin-eosin staining based analysis", "format": "organism-based", "conditions": "in vivo, po, 336 h"}}, "data": [{"smiles": "O=c1[nH]c(=O)n(COCc2ccccc2)c(Sc2cc(F)ccc2F)c1C1CC1", "values": [{"measurement": "EC50", "setting": "[1]", "value": 0.38, "unit": "µM"}, {"measurement": "EC50", "setting": "[2]", "value": 0.017, "unit": "µM"}, {"measurement": "CC50", "setting": "[3]", "value": 39.2, "unit": "µM"}, {"measurement": "selectivity ratio", "setting": "[4]", "value": 2330}, {"measurement": "EC50", "setting": "[5]", "value": 2.64, "unit": "µM"}, {"measurement": "EC50", "setting": "[6]", "value": 1.85, "unit": "µM"}, {"measurement": "EC50", "setting": "[7]", "value": "> 39.2", "unit": "µM"}, {"measurement": "EC50", "setting": "[8]", "value": 0.09, "unit": "µM"}, {"measurement": "IC50", "setting": "[9]", "value": 0.03, "unit": "µM"}, {"measurement": "IC50", "setting": "Cytochrome P450 1A2", "value": "> 50", "unit": "µM"}, {"measurement": "IC50", "setting": "Cytochrome P450 2C9", "value": 27.6, "unit": "µM"}, {"measurement": "IC50", "setting": "Cytochrome P450 2C19", "value": 30.3, "unit": "µM"}, {"measurement": "IC50", "setting": "Cytochrome P450 2D6", "value": "> 50", "unit": "µM"}, {"measurement": "IC50", "setting": "Cytochrome P450 3A4 [10]", "value": "> 50", "unit": "µM"}, {"measurement": "IC50", "setting": "Cytochrome P450 3A4 [11]", "value": "> 50", "unit": "µM"}, {"measurement": "AUC(0-inf)", "setting": "[12]", "value": 1100, "unit": "ng·h/mL"}, {"measurement": "AUC(0-inf)", "setting": "[13]", "value": 9560, "unit": "ng·h/mL"}, {"measurement": "AUC(0-t)", "setting": "[14]", "value": 1100, "unit": "ng·h/mL"}, {"measurement": "AUC(0-t)", "setting": "[15]", "value": 8660, "unit": "ng·h/mL"}, {"measurement": "half-life", "setting": "[16]", "value": 30.8, "unit": "min"}, {"measurement": "half-life", "setting": "[17]", "value": 151, "unit": "min"}, {"measurement": "Tmax", "setting": "[18]", "value": 4.98, "unit": "min"}, {"measurement": "Tmax", "setting": "[19]", "value": 35, "unit": "min"}, {"measurement": "Vd", "setting": "[20]", "value": 0.698, "unit": "L/kg"}, {"measurement": "clearance", "setting": "[21]", "value": 15.6, "unit": "mL/min/kg"}, {"measurement": "Cmax", "setting": "[22]", "value": 2030, "unit": "ng/mL"}, {"measurement": "Cmax", "setting": "[23]", "value": 3520, "unit": "ng/mL"}, {"measurement": "bioavailability", "setting": "[24]", "value": 86.7, "unit": "%"}, {"measurement": "IC50", "setting": "[25]", "value": "> 40", "unit": "µM"}, {"measurement": "Activity", "setting": "[26]", "value": "Non-Toxic"}, {"measurement": "Activity", "setting": "[27]", "value": "Non-Toxic"}, {"measurement": "Activity", "setting": "[28]", "value": "Non-Toxic"}, {"measurement": "Activity", "setting": "[29]", "value": "Non-Toxic"}, {"measurement": "Activity", "setting": "[30]", "value": "Non-Toxic"}, {"measurement": "Activity", "setting": "[31]", "value": "Non-Toxic"}, {"measurement": "Activity", "setting": "[32]", "value": "Non-Toxic"}, {"measurement": "Activity", "setting": "[33]", "value": "Non-Toxic"}, {"measurement": "Activity", "setting": "[34]", "value": "Non-Toxic"}]}]}
